Reference: patent US20190322643A1 (Georgia State University Research Foundation, Inc., priority 2016, published 2019)
Entries after “also recorded” stand apart in the source; their conditions may differ.

What was measured:
A549 = assay: Cytotoxicity / anti-proliferation assay (CCK-8), A549; format: cell-based; conditions: Homo sapiens, 72 h, CCK-8 kit
Protocol: (§1) Then the cells were exposed to the different inhibitors with various concentrations for 72 h. […] EC50s were calculated using GraphPad Prizm statistical package with sigmoidal variable slope dose response curve fit.
(§2) Cell anti-proliferation assays were performed to determine the toxicity of these inhibitors. […] These compounds were further evaluated against the control cell line HEK293 to test their toxicity with a non-cancerous cell line.

[1] = molecular target: T1, Mouse histone methyltransferase G9a (969-1263) (Mus musculus, UniProt Q9Z148); assay: MALDI-TOF methylation study of G9a inhibition; format: biochemical; conditions: inhibitors at 5 μM concentration for 30 min
T1 construct: The 6His-sumo mG9a (969-1263) protein was purified using the following procedure; 6His-sumo (cleaved yes); made in house; host or cells: Escherichia coli BL21 (DE3)
T1 sequence (Q9Z148 969-1263): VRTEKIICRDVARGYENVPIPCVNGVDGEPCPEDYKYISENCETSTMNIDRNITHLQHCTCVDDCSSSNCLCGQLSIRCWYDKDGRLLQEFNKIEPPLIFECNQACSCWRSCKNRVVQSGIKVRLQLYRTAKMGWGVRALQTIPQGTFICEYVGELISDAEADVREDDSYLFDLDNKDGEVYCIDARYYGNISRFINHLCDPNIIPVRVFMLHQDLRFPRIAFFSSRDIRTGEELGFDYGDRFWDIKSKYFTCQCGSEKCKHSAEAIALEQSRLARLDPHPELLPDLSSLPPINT
Protocol: Mouse histone methyltransferase G9a (969-1263) cDNA was amplified from the cDNA of BALB/c mouse thymus, and the fragment was sub-cloned into a vector with a 6His-sumo tag. […] The 6His-sumo mG9a (969-1263) protein was purified using the following procedure: harvested cell pellet was re-suspended in 20 mM Tris (pH 8.0), 500 mM NaCl, 0.1% β-mercaptoethanol, and 1 mM PMSF. Cells were lysed by sonicating for 15 seconds with 6 second intervals for a total time of 15 minutes on an ice bath. […] The 6His-sumo tag was cleaved from the column by adding Ubiquitin-like-specific protease 1 (ULP-1) at 4° C. for 12 hours. Wash buffer was then run through the Ni^+ column again and the elution buffer collected. Subsequently, advanced protein purification was done by HiTrap Q HP sequential Superdex 200 10/300 GL. Elute of every step was analyzed by SDS PAGE, stained by Coomassie brilliant blue (CBB). […] The reaction was incubated at room temperature for 30 min, and stopped by TFA. 1 μL of the sample was mixed with CHCA matrix and m/z peaks were obtained at reflection positive mode. The results of mass spectrum were analyzed using the Bruker flex analysis software and data processing was carried out as described below. MALDI-TOF based experiments were performed according to the protocol developed by Chang et al. (Nat. Struct. Mol. Biol. 2009, 16, 312-317). MALDI spectra were collected using Bruker flex control software and analyzed by flex analysis. After labelling each cluster peaks of H3K9Me0, H3K9Me1 and H3K9Me2 for all of the tested concentrations, area under the cluster (AUC) were extracted by using the same flex analysis software. % abundance of each peak was calculated by following formula: A=% Abundance of (H3K9Me0)=area of H3K9Me0/(area of H3K9Me0+area of H3K9Me1+area of H3K9Me2) B=% Abundance of (H3K9Me1)=area of H3K9Me1/(area of H3K9Me0+area of H3K9Me1+area of H3K9Me2) C=% Abundance of (H3K9Me2)=area of H3K9Me2/(area of H3K9Me0+area of H3K9Me1+area of H3K9Me2). This was repeated for each spectra (3 multiples for each samples). […] Finally % inhibition was found by subtracting % MA(i) from 100. […] A biochemical assay using MALDI-TOF was used to visualize the effects of the synthesized compounds on G9a enzymatic activity. […] Struct. Mol. Biol. 2009, 16, 312-317).

G9a = molecular target: T2, G9a (Homo sapiens, UniProt Q96KQ7); assay: H3K9Me2 cell immunofluorescence in-cell Western (ICW) assay; format: cell-based; conditions: MDA-MB-231 cell line, 48 h
T2 construct: endogenous in cells; host or cells: MDA-MB-231
T2 sequence (Q96KQ7 1-1210): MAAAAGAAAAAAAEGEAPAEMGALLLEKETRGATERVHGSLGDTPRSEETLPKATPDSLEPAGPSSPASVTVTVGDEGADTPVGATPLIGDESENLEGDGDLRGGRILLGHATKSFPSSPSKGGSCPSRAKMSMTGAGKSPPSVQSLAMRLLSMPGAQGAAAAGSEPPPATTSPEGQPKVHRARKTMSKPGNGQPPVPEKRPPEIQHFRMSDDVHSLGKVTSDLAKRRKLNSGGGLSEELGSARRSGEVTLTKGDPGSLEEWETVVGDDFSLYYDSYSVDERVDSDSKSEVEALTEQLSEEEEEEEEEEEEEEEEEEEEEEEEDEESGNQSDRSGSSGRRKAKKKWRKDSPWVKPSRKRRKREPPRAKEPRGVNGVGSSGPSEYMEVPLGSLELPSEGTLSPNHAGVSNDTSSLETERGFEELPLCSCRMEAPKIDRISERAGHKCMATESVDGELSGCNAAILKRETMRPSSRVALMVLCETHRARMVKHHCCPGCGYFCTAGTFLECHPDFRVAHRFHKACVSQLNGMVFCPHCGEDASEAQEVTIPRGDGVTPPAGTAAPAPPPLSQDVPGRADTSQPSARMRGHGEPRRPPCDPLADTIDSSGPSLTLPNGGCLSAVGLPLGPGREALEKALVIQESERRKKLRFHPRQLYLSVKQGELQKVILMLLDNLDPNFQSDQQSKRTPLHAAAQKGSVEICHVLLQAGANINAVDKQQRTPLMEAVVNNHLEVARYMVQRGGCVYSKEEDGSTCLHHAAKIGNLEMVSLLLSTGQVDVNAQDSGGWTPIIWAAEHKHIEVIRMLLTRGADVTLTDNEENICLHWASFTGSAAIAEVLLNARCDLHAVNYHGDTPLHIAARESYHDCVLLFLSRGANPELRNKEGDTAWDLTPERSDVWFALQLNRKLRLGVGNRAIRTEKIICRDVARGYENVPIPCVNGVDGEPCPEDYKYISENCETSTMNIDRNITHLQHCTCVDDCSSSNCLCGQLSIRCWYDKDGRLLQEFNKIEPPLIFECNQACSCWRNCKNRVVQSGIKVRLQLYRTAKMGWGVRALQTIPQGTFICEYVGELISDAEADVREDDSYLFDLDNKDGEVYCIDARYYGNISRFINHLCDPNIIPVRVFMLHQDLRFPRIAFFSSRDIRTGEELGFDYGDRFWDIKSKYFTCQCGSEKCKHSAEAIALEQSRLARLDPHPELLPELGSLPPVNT
Protocol: After the incubation, the media was removed and 100 μl fixation and permeabilization solution (2% formaldehyde in PBS) for fixation was added for 30 min. And then use 200 μl 0.1% Triton X100 in PBS washing solution to wash (allow wash to shake on a plate shaker for 5 minutes). After five washes, cells were blocked for 1 h with 150 μl blocking buffer to each well (1% BSA in PBS) (allow blocking at RT with moderate shaking on a plate shaker). After 1 h, remove the blocking buffer from the blocking step and add primary antibody in blocking buffer to cover the bottom of each well. […] The plates were read on an Odyssey CLX (LiCor) scanner at both 800 nm (H3K9me2 signal) and 700 nm (cell tag 700 stain signal) channels. IC50s were calculated using GraphPad Prizm statistical package with sigmoidal variable slope dose response curve fit.

HCT-8 = assay: Cytotoxicity / anti-proliferation assay (CCK-8), HCT-8; format: cell-based; conditions: Homo sapiens, 72 h, CCK-8 kit
Protocol: as §1, §2

HDAC = assay: Homogeneous cellular HDAC assay, statements in text without one cell line; conditions: result in words
Protocol: After 24 h, 9 μl inhibitors with different concentration were added to the HeLa cells and incubation was continued for 3 h under cell culture conditions. After this treatment period, 10 μl of a 2 mM stock solution of the substrate Boc-K(Ac)-AMC was added into the 96 well plates with Hela cells and inhibitors. […] A549 and K562 cell lines used the same method, respectively. IC50s were calculated using GraphPad Prizm statistical package with sigmoidal variable slope dose response curve fit.
Boc-K(Ac)-AMC was used as a cell-permeable HDAC substrate, as after deacetylation it is cleaved by trypsin to release the florescent 7-amino-4-methylcoumarin (AMC).

HEK293 = assay: Toxicity assay (CCK-8) in control non-cancerous cell line; format: cell-based
Protocol: A549, MDA-MB-231, HCT-8, MCF-7, and HEK293 cells were seeded at 8000-10000 cells (100 μl) in white 96-well plates and pre-incubate the plate for 24 h under standard cell culture conditions, respectively. Then the cells were exposed to the different inhibitors with various concentrations for 72 h. Finally, 10 μl of CCK-8 kit solution was added to each well and incubated for 3-4 hours under standard cell culture conditions, and the 96 well plates were measured the absorbance at 450 nm using Perkin-Elmer Wallac Victor ^3V 1420 multi label plate reader (Perkin-Elmer, Wellesley, USA). EC50s were calculated using GraphPad Prizm statistical package with sigmoidal variable slope dose response curve fit.
as §2, with “inhibitors. Several cell lines (MDA-MB-231, MCF-7, A549 and HCT-8) were incubated and then treated with varying concentrations of the inhibitors for 72 h, respectively.” for “inhibitors.”

Compound | EC50 (A549) [µM] | inhibition at 5 µM [1] [%] | IC50 (G9a) [µM] | EC50 (HCT-8) [µM] | HDAC inhibition activity (HDAC) | toxicity in normal cell line (HEK293)
COc1cc2nc(NCCNC(=O)CCCCCC(=O)NO)nc(NC3CCN(Cc4ccccc4)CC3)c2cc1OC [Compound 5b, N1-(2-((4-((1-benzylpiperidin-4-yl)amino)-6,7-dimethoxyquinazolin-2-yl)amino)ethyl)-N7-hydroxyheptanediamide] | > 100 | 38 ± 4.99 | 87.4 ± 5.44 | > 100 | much lower than that of 14 | –
COc1ccc2c(NC3CCN(Cc4ccccc4)CC3)nc(NCCNC(=O)CCCCCCC(=O)NO)nc2c1 [Compound 13, N1-(2-((4-((1-benzylpiperidin-4-yl)amino)-7-methoxyquinazolin-2-yl)amino)ethyl)-N8-hydroxyoctanediamide] | – | 62 ± 14.4 | 37.8 ± 2.8 | > 100 | significant HDAC inhibition | lower toxicity
COc1ccc2c(NC3CCN(Cc4ccccc4)CC3)nc(NCCNC(=O)CCCCCC(=O)NO)nc2c1 [Compound 14, N1-(2-((4-((1-benzylpiperidin-4-yl)amino)-7-methoxyquinazolin-2-yl)amino)ethyl)-N7-hydroxyheptanediamide] | – | 69.5 ± 3.43 | 7.14 ± 1.62 | 73.1 ± 1.21 | significant HDAC inhibition | lower toxicity; also recorded: less toxic compared to 13
